From patent publication US20220144847A1, “HETEROCYCLIC COMPOUND, PHARMACEUTICAL COMPOSITION COMPRISING SAME, PREPARATION METHOD THEREFOR, AND USE THEREOF” (Sichuan Kelun-Biotech Biopharmaceutical Co., Ltd., priority 2019, published 2022)
Where two headings read alike, the source gives them in different places. Each block holds one compound with its values, some of them ahead of it.

How the values were obtained:
VEGFR2 = VEGFR2 (Homo sapiens, UniProt P35968); assay: VEGFR2 inhibition experiment (HTRF KinEASE-TK kit); format: biochemical; details: read-out: Inhibition rate on VEGFR2; for inhibition at 0.3 µM: 300 nM; for inhibition at 0.1 µM: 100 nM
Procedure: Experimental method: According to the instructions of the HTRF KinEASE-TK kit (Cisbio), the compounds of the present disclosure were tested for their inhibitory effects on the VEGFR2 enzyme activity. After pre-incubation of the VEGFR2 enzyme and different concentrations of test compounds at room temperature for 30 min, a substrate and adenosine triphosphate (ATP) were added to initiate the reaction. After incubation at room temperature for 40 min, TK antibody-cryptate and streptavidin-XL665 were added, and the test was performed after incubation at room temperature for 45 min. With the solvent group (DMSO) as the negative control and the buffer group (without VEGFR2 enzyme) as the blank control, the relative inhibitory activity percentages (i.e., inhibition rates) of different concentrations of the compounds were computed as per the following formula:
(§1) Relative inhibitory activity percentage=1−(compound group of different concentrations−blank control)/(negative control−blank control)*100%
(§2) The relative inhibitory activity percentages of different concentrations of the compounds were plotted with respect to the compound concentrations, and the curve was fitted according to a four-parameter model to compute the IC50 value as per the following formula:
(§3) y=min+(max−min)/(1+(x/IC50)^(−Hillslope))
(§4) where y is the relative inhibitory activity percentage, max is the maximum value of the fitted curve, min is the minimum value of the fitted curve, x is the logarithmic concentration of the compound, and Hillslope is the slope of the curve.

RET-V804M = RET-V804M (Homo sapiens, UniProt P07949, V804M); assay: RET inhibition experiment (HTRF KinEASE-TK kit), mutant RET-V804M; format: biochemical; details: for inhibition at 0.01 µM: 10 nM (Table 2); for inhibition at 0.01 µM / inhibition at 0.1 µM: read-out: Inhibition rate on RET-V804M
Procedure: Experimental method: According to the instructions of the HTRF KinEASE-TK kit (Cisbio), the compounds of the present disclosure were tested for their inhibitory effects on the activity of wild-type RET enzyme, mutant RET enzyme (RET-V804M, RET-V804L, and RET-M918T) and fusion-type RET enzyme (RET-CCDCl6). After pre-incubation of different RET enzymes and different concentrations of the test compounds at room temperature for 30 min, a substrate and adenosine triphosphate (ATP) were added to initiate the reaction. After incubation at room temperature for 40 min, TK antibody-cryptate and streptavidin-XL665 were added, and the test was performed after incubation at room temperature for 45 min. With the solvent group (DMSO) as the negative control and the buffer group (without RET enzyme) as the blank control, the relative inhibitory activity percentages (i.e., inhibition rates) of different concentrations of the compounds were computed as per the following formula:
as §1, §2, §3, §4

Chain of VEGFR2 (P35968 20-1356, species assumed): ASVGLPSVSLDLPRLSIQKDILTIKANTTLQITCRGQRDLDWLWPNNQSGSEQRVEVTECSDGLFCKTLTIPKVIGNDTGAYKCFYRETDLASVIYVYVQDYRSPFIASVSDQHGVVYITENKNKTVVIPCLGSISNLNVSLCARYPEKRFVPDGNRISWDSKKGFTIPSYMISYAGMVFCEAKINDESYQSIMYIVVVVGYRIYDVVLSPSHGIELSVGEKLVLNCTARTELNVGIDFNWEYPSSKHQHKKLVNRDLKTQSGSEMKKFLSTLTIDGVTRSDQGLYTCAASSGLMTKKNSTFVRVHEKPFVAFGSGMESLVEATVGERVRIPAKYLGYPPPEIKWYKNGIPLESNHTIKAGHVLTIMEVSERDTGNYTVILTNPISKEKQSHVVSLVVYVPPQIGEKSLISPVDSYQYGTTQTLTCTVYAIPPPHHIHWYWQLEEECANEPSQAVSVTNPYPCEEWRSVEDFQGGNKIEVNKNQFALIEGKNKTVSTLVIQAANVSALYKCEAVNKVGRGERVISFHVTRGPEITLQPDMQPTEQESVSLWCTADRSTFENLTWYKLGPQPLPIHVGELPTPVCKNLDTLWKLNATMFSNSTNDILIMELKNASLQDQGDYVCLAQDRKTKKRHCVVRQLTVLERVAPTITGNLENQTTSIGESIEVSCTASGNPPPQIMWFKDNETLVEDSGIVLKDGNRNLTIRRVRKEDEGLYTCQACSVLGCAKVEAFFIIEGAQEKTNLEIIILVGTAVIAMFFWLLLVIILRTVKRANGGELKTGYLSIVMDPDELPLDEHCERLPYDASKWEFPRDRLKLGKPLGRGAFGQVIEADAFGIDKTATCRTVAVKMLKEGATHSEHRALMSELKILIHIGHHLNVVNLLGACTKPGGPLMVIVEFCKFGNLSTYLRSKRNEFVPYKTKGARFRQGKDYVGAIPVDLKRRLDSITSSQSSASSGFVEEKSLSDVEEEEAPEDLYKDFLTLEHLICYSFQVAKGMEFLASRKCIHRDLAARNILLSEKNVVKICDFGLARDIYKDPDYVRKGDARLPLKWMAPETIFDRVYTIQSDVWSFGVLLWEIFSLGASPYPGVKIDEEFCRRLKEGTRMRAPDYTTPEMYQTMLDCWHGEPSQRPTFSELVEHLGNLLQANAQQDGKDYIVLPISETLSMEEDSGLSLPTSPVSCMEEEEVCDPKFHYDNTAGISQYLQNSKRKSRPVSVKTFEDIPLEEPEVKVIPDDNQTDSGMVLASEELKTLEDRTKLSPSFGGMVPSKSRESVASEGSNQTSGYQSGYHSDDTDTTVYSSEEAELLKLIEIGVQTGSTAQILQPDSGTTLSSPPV
Chain of RET-V804M (P07949 29-1114 V804M): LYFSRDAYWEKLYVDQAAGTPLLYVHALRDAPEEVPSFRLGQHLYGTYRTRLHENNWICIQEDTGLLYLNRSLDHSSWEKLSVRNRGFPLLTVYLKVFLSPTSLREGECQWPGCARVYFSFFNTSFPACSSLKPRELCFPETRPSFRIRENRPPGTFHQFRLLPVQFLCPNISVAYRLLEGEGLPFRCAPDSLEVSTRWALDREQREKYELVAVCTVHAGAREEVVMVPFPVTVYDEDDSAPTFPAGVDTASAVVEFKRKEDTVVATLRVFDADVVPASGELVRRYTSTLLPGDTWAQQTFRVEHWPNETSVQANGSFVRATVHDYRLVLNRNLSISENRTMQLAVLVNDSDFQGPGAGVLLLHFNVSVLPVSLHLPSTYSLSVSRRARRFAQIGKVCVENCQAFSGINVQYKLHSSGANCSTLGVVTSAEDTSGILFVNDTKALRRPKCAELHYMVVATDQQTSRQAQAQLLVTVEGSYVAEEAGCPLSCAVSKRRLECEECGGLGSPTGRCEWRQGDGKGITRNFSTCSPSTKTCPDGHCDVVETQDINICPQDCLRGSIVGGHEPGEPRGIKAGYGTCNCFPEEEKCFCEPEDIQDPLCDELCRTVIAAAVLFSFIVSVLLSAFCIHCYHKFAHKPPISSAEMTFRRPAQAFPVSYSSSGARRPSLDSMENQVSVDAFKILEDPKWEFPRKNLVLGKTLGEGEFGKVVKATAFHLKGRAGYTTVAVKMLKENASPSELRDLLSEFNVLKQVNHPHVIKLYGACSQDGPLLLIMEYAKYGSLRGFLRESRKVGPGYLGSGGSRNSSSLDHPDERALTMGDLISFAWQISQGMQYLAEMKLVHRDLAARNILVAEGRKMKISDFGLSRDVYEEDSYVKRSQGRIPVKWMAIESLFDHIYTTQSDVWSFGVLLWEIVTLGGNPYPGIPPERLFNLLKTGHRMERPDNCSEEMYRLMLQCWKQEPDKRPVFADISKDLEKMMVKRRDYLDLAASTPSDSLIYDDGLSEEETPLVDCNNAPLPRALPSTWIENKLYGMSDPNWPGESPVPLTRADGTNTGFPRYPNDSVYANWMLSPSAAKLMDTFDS

SMILES: Cc1cc(Nc2cc(C)[nH]n2)nc(-c2ccc(N3C[C@H]4C[C@@H](C3)N4C(C)c3ccc(-n4cc(F)cn4)nc3)nc2)n1 (single isomer, unassigned) [Compound 52-2]
- inhibition at 0.3 µM (VEGFR2): 12%
- IC50 (RET-V804M; read-out: The IC50 (nM) for inhibiting V804M): 13 ± 2.34 nM

SMILES: Cc1cc(Nc2cc(C)[nH]n2)nc(-c2ccc(N3CC4CC(C3)N4C(C)c3ccc(-n4cccn4)nc3)nc2)n1 (single isomer, unassigned) [Compound 125-2]
- inhibition at 0.3 µM (VEGFR2): 63%
- inhibition at 0.01 µM (RET-V804M): 82%

SMILES: Cc1cc(Nc2cc(C)[nH]n2)nc(-c2ccc(N3CC4CC(C3)N4Cc3ccc(-n4cc(F)cn4)nc3)nc2)c1 [Compound 6, 6′-(6-((6-(4-fluoro-1H-pyrazol-1-yl)pyridin-3-yl)methyl)-3,6-diazabicyclo[3.1.1]heptan-3-yl)-4-methyl-N-(5-methyl-1H-pyrazol-3-yl)-[2,3′-dipyridyl]-6-amine]
- inhibition at 0.1 µM (VEGFR2): -11%
- inhibition at 0.01 µM (RET-V804M): 83%

SMILES: COc1ccc(-c2ccc(CN3C4CC3CN(c3ccc(-c5nc(C)cc(Nc6cc(C)[nH]n6)n5)cn3)C4)cn2)cn1 [Compound 7, 2-(6-(6-((6′-methoxy-[2,3′-dipyridyl]-5-yl)methyl)-3,6-diazabicyclo[3.1.1]heptan-3-yl)pyridin-3-yl)-6-methyl-N-(5-methyl-1H-pyrazol-3-yl)pyrimidin-4-amine]
- inhibition at 0.1 µM (VEGFR2): 16%
- inhibition at 0.01 µM (RET-V804M): 46%

SMILES: Cc1ccc(CN2C3CC2CN(c2ccc(-c4nc(C)cc(Nc5cc(C)[nH]n5)n4)cn2)C3)cn1 [Compound 16, 6-methyl-N-(5-methyl-1H-pyrazol-3-yl)-2-(6-(6-((6-methylpyridin-3-yl)methyl)-3,6-diazabicyclo[3.1.1]heptan-3-yl)pyridin-3-yl)pyrimidin-4-amine]
- inhibition at 0.1 µM (RET-V804M; 100 nM (Table 2)): 92%

SMILES: COc1cncc(CN2C3CC2CN(c2ccc(-c4nc(C)cc(Nc5cc(C)[nH]n5)n4)cn2)C3)c1 [Compound 18, 2-(6-(6-((5-methoxypyridin-3-yl)methyl)-3,6-diazabicyclo[3.1.1]heptan-3-yl)pyridin-3-yl)-6-methyl-N-(5-methyl-1H-pyrazol-3-yl)pyrimidin-4-amine]
- inhibition at 0.1 µM (RET-V804M; 100 nM (Table 2)): 70%

SMILES: Cc1cc(Nc2cc(C)[nH]n2)nc(-c2ccc(N3CC4CC(C3)N4Cc3cnccc3C)nc2)n1 [Compound 21, 6-methyl-N-(5-methyl-1H-pyrazol-3-yl)-2-(6-(6-((4-methylpyridin-3-yl)methyl)-3,6-diazabicyclo[3.1.1]heptan-3-yl)pyridin-3-yl)pyrimidin-4-amine]
- inhibition at 0.1 µM (RET-V804M; 100 nM (Table 2)): 49%

SMILES: Cc1cc(Nc2cc(C)[nH]n2)nc(-c2ccc(N3CC4CC(C3)N4Cc3ccc(-n4ncc(Cl)c4C)nc3)nc2)n1 [Compound 28′, 2-(6-(6-((6-(4-chloro-5-methyl-1H-pyrazol-1-yl)pyridin-3-yl)methyl)-3,6-diazabicyclo[3.1.1]heptan-3-yl)pyridin-3-yl)-6-methyl-N-(5-methyl-1H-pyrazol-3-yl)pyrimidin-4-amine]
- inhibition at 0.01 µM (RET-V804M): 34%

- inhibition at 0.1 µM (RET-V804M; 100 nM (Table 2)): 75%
SMILES: COc1ccc(CN2CCN(c3ccc(-c4nc(C)cc(Nc5cc(C)[nH]n5)n4)cn3)CC2)cn1 [Compound 49, 2-(6-(4-((6-methoxypyridin-3-yl)methyl)piperazin-1-yl)pyridin-3-yl)-6-methyl-N-(5-methyl-1H-pyrazol-3-yl)pyrimidin-4-amine]

SMILES: COc1ccc(C(C)N2C3CC2CN(c2ccc(-c4nc(C)cc(Nc5cc(C)[nH]n5)n4)cn2)C3)cc1 (centres unmarked) [Compound 50, 2-(6-(6-(1-(4-methoxyphenyl)ethyl)-3,6-diazabicyclo[3.1.1]heptan-3-yl)pyridin-3-yl)-6-methyl-N-(5-methyl-1H-pyrazol-3-yl)pyrimidin-4-amine]
- inhibition at 0.1 µM (RET-V804M): 50%

SMILES: Cc1cc(Nc2cc(C)[nH]n2)nc(-c2ccc(N3CC4CC(C3)N4C(C)c3ccc(-n4cc(F)cn4)nc3)nc2)n1 (centres unmarked) [Compound 52, 2-(6-(6-(1-(6-(4-fluoro-1H-pyrazol-1-yl)pyridin-3-yl)ethyl)-3,6-diazabicyclo[3.1.1]heptan-3-yl)pyridin-3-yl)-6-methyl-N-(5-methyl-1H-pyrazol-3-yl)pyrimidin-4-amine]
- inhibition at 0.1 µM (VEGFR2): -5%

SMILES: COc1ccc(CN2C3CC2CN(c2ccc(-c4nc(C)cc(Nc5cc(C)[nH]n5)n4)cn2)C3)nc1 [Compound 67, 2-(6-(6-((5-methoxypyridin-2-yl)methyl)-3,6-diazabicyclo[3.1.1]heptan-3-yl)pyridin-3-yl)-6-methyl-N-(5-methyl-1H-pyrazol-3-yl)pyrimidin-4-amine]
- inhibition at 0.1 µM (RET-V804M; 100 nM (Table 2)): 82%

SMILES: Cc1cc(Nc2cc(C)[nH]n2)nc(-c2ccc(N3CC4CC(C3)N4Cc3ccc(C(F)(F)F)cc3)nc2)n1 [Compound 84, 6-methyl-N-(5-methyl-1H-pyrazol-3-yl)-2-(6-(6-(4-(trifluoromethyl)benzyl)-3,6-diazabicyclo[3.1.1]heptan-3-yl)pyridin-3-yl)pyrimidin-4-amine]
- inhibition at 0.1 µM (RET-V804M): 72%

SMILES: Cc1cc(Nc2cc(C)[nH]n2)nc(-c2ccc(N3CC4CC(C3)N4Cc3ccc(C#N)cc3)nc2)n1 [Compound 85, 4-((3-(5-(4-methyl-6-((5-methyl-1H-pyrazol-3-yl)-amino)pyrimidin-2-yl)pyridin-2-yl)-3,6-diazabicyclo[3.1.1]heptan-6-yl)methyl)benzonitrile]
- inhibition at 0.1 µM (RET-V804M): 77%

SMILES: Cc1cc(Nc2cc(C)[nH]n2)nc(-c2ccc(N3CC4CC(C3)N4Cc3cncc(F)c3)nc2)n1 [Compound 98, 2-(6-(6-((5-fluoropyridin-3-yl)methyl)-3,6-diazabicyclo[3.1.1]heptan-3-yl)pyridin-3-yl)-6-methyl-N-(5-methyl-1H-pyrazol-3-yl)pyrimidin-4-amine]
- inhibition at 0.1 µM (RET-V804M; 100 nM (Table 2)): 63%

- inhibition at 0.1 µM (RET-V804M; 100 nM (Table 2)): 62%
SMILES: COc1ccc(C(=O)N2CCN(c3ccc(-c4nc(C)cc(Nc5cc(C)[nH]n5)n4)cn3)CC2)cn1 [Compound 110, (6-methoxypyridin-3-yl)(4-(5-(4-methyl-6-((5-methyl-1H-pyrazol-3-yl)amino)pyrimidin-2-yl)pyridin-2-yl)piperazin-1-yl)methanone]

- inhibition at 0.1 µM (RET-V804M; 100 nM (Table 2)): 46%
SMILES: COc1ccc(CC(=O)N2CCN(c3ccc(-c4nc(C)cc(Nc5cc(C)[nH]n5)n4)cn3)CC2)cn1 [Compound 111, 2-(6-methoxypyridin-3-yl)-1-(4-(5-(4-methyl-6-((5-methyl-1H-pyrazol-3-yl)amino)pyrimidin-2-yl)pyridin-2-yl)piperazin-1-yl)ethan-1-one]

SMILES: Cc1cc(Nc2cc(C)[nH]n2)nc(-c2ccc(N3CC4CC(C3)N4Cc3ccc(C#N)nc3)nc2)n1 [Compound 117, 5-((3-(5-(4-methyl-6-((5-methyl-1H-pyrazol-3-yl)-amino)pyrimidin-2-yl)pyridin-2-yl)-3,6-diazabicyclo[3.1.1]heptan-6-yl)methyl)-2-cyanopyridine]
- inhibition at 0.1 µM (RET-V804M; 100 nM (Table 2)): 76%

SMILES: Cc1cc(Nc2cc(C)[nH]n2)nc(-c2ccc(N3CC4CC(C3)N4Cc3ccc(C(F)(F)F)nc3)nc2)n1 [Compound 118, 6-methyl-N-(5-methyl-1H-pyrazol-3-yl)-2-(6-(6-((6-(trifluoromethyl)pyridin-3-yl)methyl)-3,6-diazabicyclo[3.1.1]heptan-3-yl)pyridin-3-yl)pyrimidin-4-amine]
- inhibition at 0.1 µM (RET-V804M; 100 nM (Table 2)): 74%

SMILES: Cc1cc(Nc2cc(C)[nH]n2)nc(-c2ccc(N3CC4CC(C3)N4C(C)c3ccc(-n4cccn4)nc3)nc2)n1 (centres unmarked) [Compound 125, 2-(6-(6-(1-(6-(1H-pyrazol-1-yl)pyridin-3-yl)ethyl)-3,6-diazabicyclo[3.1.1]heptan-3-yl)pyridin-3-yl)-6-methyl-N-(5-methyl-1H-pyrazol-3-yl)pyrimidin-4-amine]
- inhibition at 0.3 µM (VEGFR2): 44%

SMILES: Cc1cc(Nc2cc(C)[nH]n2)nc(-c2ccc(N3CC4CC(C3)N4Cc3ccc(-n4cc(CF)cn4)nc3)nc2)n1 [Compound 126, 2-(6-(6-((6-(4-fluoromethyl-1H-pyrazol-1-yl)pyridin-3-yl)methyl)-3,6-diazabicyclo[3.1.1]heptan-3-yl)pyridin-3-yl)-6-methyl-N-(5-methyl-1H-pyrazol-3-yl)pyrimidin-4-amine]
- inhibition at 0.1 µM (RET-V804M; 100 nM (Table 2)): 82%

SMILES: Cc1cc(Nc2cc(C)[nH]n2)nc(-c2ccc(N3CC4CC(C3)N4Cc3ccc(-n4cc(CO)cn4)nc3)nc2)n1 [Compound 127, (1-(5-((3-(5-(4-methyl-6-((5-methyl-1H-pyrazol-3-yl)amino)pyrimidin-2-yl)pyridin-2-yl)-3,6-diazabicyclo[3.1.1]heptan-6-yl)methyl)pyridin-2-yl)-1H-pyrazol-4-yl)methanol]
- inhibition at 0.1 µM (RET-V804M; 100 nM (Table 2)): 84%
